Measured values reported in patent publication US9227955B2, “Compound having angiogenesis inhibitory activity, method for preparing same, and pharmaceutical composition comprising same” (Boryung Pharmaceutical Co., Ltd., priority 2011, dated 2016).
“Also recorded” adds a separate entry of the source. Marks after values point to notes of the source that are not given here.

Columns and labels:
[1] = tested on: HUVECs (human umbelical vein endothelial cells); assay: Transwell assay, VEGF-induced cell migration in HUVECs; type: cell-based; conditions: for suppression of VEGF-induced migration of HUVECs, in words: transwell assay, text on Tables 3 and 4
Procedure: To examine the inhibitory effect of the compounds obtained in the Examples on VEGF (Vascular endothelial growth factor)-induced cell migration in HUVECs (human umbelical vein endothelial cells), a transwell assay was performed as follows.
HUVECs, provided from ATCC (American Type Culture Collection), were incubated in EGM-2 (Endothelial growth Medium-2 Medium) including 10% FBS, penicillin (100 unit/ml) and 100 μg/ml streptomycin sulfate plus various growth factors at 37° C. in an atmosphere of 5% CO2. After the change of the medium with growth factor-free EBM-2 (Endothelial Basal Medium-2 Medium), the cells were subjected to transwell assay.
After for 24 hours, the cells were fixed for 1 min with ethanol and were stained with a dye. Cell migration was evaluated by counting cells which moved through the pores.
In addition, cells were treated with Compound No. 250 (Example 26) at various concentrations given in Table 3, and assayed for cell migration, as conducted with Compounds 103, 110, 218, 273, 275, 276, 290, 312, 428, 442, and 509. The results were compared with those obtained after non-treatment (no treat) or treatment with 10 ng/mL VEGF.
Results were expressed as average numbers (n=3) of HUVECs which moved cross the membrane. Test results are summarized in Table 3 for compounds 103, 110, 218, 273, 275, 276, 290, 312, 428, 442, and 509, and in Table 4 for compound 250.

HUVECs [2] = assay: VEGF-induced tube formation of HUVECs (capillary structure formation assay); type: cell-based, human; conditions: for suppression of VEGF-induced tube formation, in words: Tables 9 and 10
Procedure: After HUVECs were seeded at a density of 3×10^5 cells/well into Matrigel-coated 48-well plates, HUVECs were with 10 ng/ml VEGF for 4 hrs. The HUVECs where tubes were formed were monitored and photographed under a microscope equipped with a camera to count cells.
HUVECs were also treated with Compound 250 (Example 26) at various concentrations given in Table 10, The HUVECs where tubes were formed were monitored and photographed under a microscope equipped with a camera, like Compound 103.

[3] = Cell viability MTS assay (cytotoxicity); type: cell-based; conditions: human; A-431 cells, 48 hrs incubation; read-out: IC50, MTS assay for cytotoxicity against A-431
Procedure: A-431 ([…], human, ATCC CRL-1555™) cells grown in DMEM (Dulbeco's Modified Eagle's Medium, Gibco #11885) were seeded at a density of 1×10^4 cells/well into 96-well plates and incubated at 37° C. for 18 hrs under the supply of 5% CO2 until the cells stably adhered to the bottom. […] After incubation for 48 hrs in the presence of the test compound, the cells were assayed for viability.
The cells in each well was added with 21 μl of a mixture of 20:1 (v/v) of an MTS solution [(3-(4,5-dimethylthiazol-2-yl)-5-(3-carboxymethoxyphenyl)-2-(4-sulfophenyl)-2H-tetrazolium, Promega, Cat#65421; 2 mg/ml] and a PMS solution [Phenazine methosulfate, Sigma #P9625; 1 mg/ml], and incubated for 2 hrs, followed by measuring absorbance at 490 nm on a microplate reader (Molecular device, spectraMax M2). Relative to the control (media), viability by drug concentration was determined from the measurements of formazan, and the results are given in Table 2, below.

HUVECs [4] = assay: BrdU incorporation assay, VEGF-induced cell proliferation in HUVECs; type: cell-based, human; conditions: for inhibition of VEGF-induced proliferation in HUVECs, in words: BrdU assay, text on Tables 7 and 8
Procedure: A BrdU incorporation assay was carried out to examine whether the proliferation of HUVECs through VEGF-induced DNA synthesis is suppressed by BRN-103. HUVECs grown as in Experimental Example 2 were seeded at a density of 1×10^4 cells/well into 96-well plates. […] Thereafter, DNA synthesis in the cells was fluorescently measured using a BrdU incorporation assay kit (Roche).
Likewise, the cells were treated with various concentrations of Compound 250 (Example 26) given in Table 8, and then with VEGF, as the same manner of that of Compound 103. Intracellular DNA was also quantified, as the same manner of that of Compound 103. For comparison, the cells were not treated (control), or were treated with 10 ng/mL VEGF, alone.

HUVECs [5] = assay: Wound healing assay, VEGF-induced migration of HUVECs; type: cell-based, human; conditions: for suppression of VEGF-induced migration of HUVECs, in words: wound healing assay, text on Tables 5 and 6
Procedure: Using a sterile, disposable cell scraper (BD Falcon, Bedford, USA), a monolayer of HUVECs was scraped, and the cells were gently washed with PBS. […] After 24 hours, the cell migration were monitored through the scraped monolayer of the cell and photographed under a microscope equipped with a camera (Canon Powershot640).
Also, Compound 250 (Example 26) was applied at various concentrations shown in Table 6 in the same manner as Compound 103, followed by monitoring and photographing the migration of the cells under the microscope. For comparison, the cells were not treated (control) or were treated with 10 ng/mL VEGF, alone.

[6] = tested on: aortic rings excised from Spague-Dawley rats; assay: Ex vivo microvessel sprouting assay, rat aortic rings; conditions: 10 nM, 50 nM, 100 nM, FIG. 6
Procedure: Likewise, after the aortic rings excised from six-week-old Spague-Dawley rats were treated with various concentrations (10 nM, 50 nM, 100 nM) of Compound 250 (Example 26) and then with VEGF, Sprouts from margins of the aortic rings were photographed under a microscope equipped with a camera, like Compound 103.

[7] = tested on: AKT (serine/threonine protein kinase B); assay: VEGF-induced AKT activation in HUVECs (Western blot); type: cell-based, human; conditions: HUVECs pretreated 1 hr, VEGF 10 ng/ml 30 min, FIG. 9
Procedure: (§1) An examination was made to see the effect of compounds of Chemical Formula I, prepared in the Examples above, on VEGF-induced activation of AKT (serine/threonine protein kinase B)/ERK (Extracellular signal-regulated kinases) and eNOS (endothelial nitric oxide synthase) in HUVECs, as follows (endothelial nitric oxide synthase).
(§2) After 3 min of centrifugation at 4000 rpm to collect the cells, the cell pellet was washed once with PBS (phosphate buffered saline). The cell pellet suspended in a lysis buffer (50 mM HEPES pH 7.0, 250 mM NaCl, 5 mM EDTA, 0.1% Nonidet P-40, 1 mM phenylmethylsulfonyl fluoride and 0.5 mM Na orthovanadate) containing 5 μl/mL of leupeptin and aprotinin, each and the reaction was performed at 4° C. for 20 min. After the cell debris was removed by microcentrifugation, the supernatant was swiftly cooled.
(§3) Protein quantification was carried out using a Bio-Rad protein assay reagent. […]
(§4) For immunoblotting, the membrane was incubated overnight at 4° C. in a blocking solution (5% skim milk), and reacted with a primary antibody for 4 hrs. After 4 washes with Tween 20/Tris-buffered saline (TTBS), the membrane was reacted with a 1:1000 (v/v) dilution of a horseradish peroxidase-conjugated secondary antibody at room temperature for 1 hr, washed three times with TTBS, and visualized by a chemical luminescence method (Amersham Life Science).

[8] = tested on: ERK (Extracellular signal-regulated kinases); assay: VEGF-induced ERK activation in HUVECs (Western blot); type: cell-based, human; conditions: HUVECs pretreated 1 hr, VEGF 10 ng/ml 10 min, FIG. 9
Procedure: as §1, §2, §3, §4

[9] = tested on: Aortic rings excised from C57BL/6 mice; assay: Ex vivo microvessel sprouting assay, mouse aortic rings; conditions: mouse aortic rings, 0.1, 0.5, 1 μM, 10 ng/ml VEGF 7 days, FIG. 5
Excerpt: Sprouts from margins of the aortic rings were photographed under a microscope equipped with a camera.

[10] = tested on: eNOS (endothelial nitric oxide synthase); assay: VEGF-induced eNOS activation in HUVECs (Western blot); type: cell-based, human; conditions: HUVECs pretreated 1 hr, VEGF 10 ng/ml 1 hr, FIG. 9
Procedure: as §1, §2, §3, §4

[11] = 1 μM, 10 ng/ml VEGF 24 hrs, n=3

CCN(CC)CCNC(=O)c1c(C)[nH]c(/C=C2\C(=O)Nc3ccc(F)cc32)c1C [Sunitinib, sunitinib, reference compound]
No. of migration cells/field [1, 11]: 16.5*** cells/field | Number of tubes/field (HUVECs [2]; VEGF + 1 μM, 4 hrs): 100*** tubes/Field | IC50 at 48 h [3]: 22 µM | BrdU incorporation (HUVECs [4]; VEGF + 1 μM, 24 hrs): 0.84*** OD 450 nm | Wound closure (HUVECs [5]; VEGF + 1 μM, 24 hrs): 210 µm

CC(c1ncnc(Cl)c1F)N1CCC(Nc2ncccc2C(=O)Nc2cccc(Cl)c2)CC1 (stereo not shown) [Compound 250, 2-{1-[1-(6-chloro-5-fluoropyrimidin-4-yl)ethyl]piperidin-4-ylamino}-N-(3-chlorophenyl)nicotinamide]
No. of migration cells/field ([1]; 100 nM, without VEGF): 4.5 ± 1.11 cells/field | No. of migration cells/field ([1]; VEGF + 25 nM): 33 ± 2.54 cells/field | No. of migration cells/field ([1]; VEGF + 50 nM): 20.3 ± 1.08 cells/field | No. of migration cells/field ([1]; VEGF + 100 nM): 12.5 ± 2.5 cells/field | suppression of VEGF-induced migration of HUVECs, in words [1]: remarkable suppressive effect | VEGF-induced aortic sprouting [6]: inhibited VEGF-induced aortic sprouting | Number of tubes/field (HUVECs [2]; 100 nM, without VEGF): 27 ± 2 tubes/field | suppression of VEGF-induced tube formation, in words (HUVECs [2]): high suppressive effect on tube formation | Number of tubes/field (HUVECs [2]; VEGF + 25 nM): 45 ± 6 tubes/field | Number of tubes/field (HUVECs [2]; VEGF + 50 nM): 35 ± 2 tubes/field | Number of tubes/field (HUVECs [2]; VEGF + 100 nM): 28 ± 4 tubes/field | IC50 at 48 h [3]: 26.1 µM | BrdU incorporation (HUVECs [4]; 100 nM, without VEGF): 0.7 ± 0.05 OD 450 nM | inhibition of VEGF-induced proliferation in HUVECs, in words (HUVECs [4]): inhibited VEGF-induced proliferation in HUVECs | BrdU incorporation (HUVECs [4]; VEGF + 25 nM): 0.79 ± 0.02 OD 450 nM | BrdU incorporation (HUVECs [4]; VEGF + 50 nM): 0.75 ± 0.03 OD 450 nM | BrdU incorporation (HUVECs [4]; VEGF + 100 nM): 0.7 ± 0.05 OD 450 nM | Wound closure (HUVECs [5]; 100 nM, without VEGF): 125 µm | Wound closure (HUVECs [5]; VEGF + 25 nM): 210 µm | Wound closure (HUVECs [5]; VEGF + 50 nM): 165 µm | Wound closure (HUVECs [5]; VEGF + 100 nM): 120 µm | suppression of VEGF-induced migration of HUVECs, in words (HUVECs [5]): highly suppresses VEGF-induced migration of HUVECs

O=C(Nc1cccc(Cl)c1)c1cccnc1NC1CCN(Cc2ccccc2)CC1 [Compound 103, 2-(1-Benzylpiperidin-4-ylamino)-N-(3-chlorophenyl)nicotinamide]
expression of p-AKT [7]: decreased the expression of p-AKT | No. of migration cells/field ([1]; 0.1 μM, 10 ng/ml VEGF 24 hrs, n=3): 16*** cells/field | No. of migration cells/field ([1]; 0.5 μM, 10 ng/ml VEGF 24 hrs, n=3): 12*** cells/field | No. of migration cells/field [1, 11]: 8*** cells/field | suppression of VEGF-induced migration of HUVECs, in words [1]: more suppressive than the anticancer agent sunitinib | expression of p-ERK [8]: did not suppress the expression of p-ERK | VEGF-induced aortic sprouting [9]: inhibited VEGF-induced aortic sprouting | p-eNOS level [10]: downregualted | suppression of VEGF-induced tube formation, in words (HUVECs [2]): more efficient in the inhibition of tube formation than sunitinib; also recorded: VEGF-induced tube formation was also suppressed | Number of tubes/field (HUVECs [2]; VEGF + 0.1 μM, 4 hrs): 90** tubes/Field | Number of tubes/field (HUVECs [2]; VEGF + 0.5 μM, 4 hrs): 80*** tubes/Field | Number of tubes/field (HUVECs [2]; VEGF + 1 μM, 4 hrs): 60*** tubes/Field | IC50 at 48 h [3]: 40.6 µM | BrdU incorporation (HUVECs [4]; 1 μM, without VEGF): 0.7 OD 450 nm | inhibition of VEGF-induced proliferation in HUVECs, in words (HUVECs [4]): inhibited VEGF-induced proliferation in HUVECs in a dose-dependent manner | BrdU incorporation (HUVECs [4]; VEGF + 0.1 μM, 24 hrs): 1.0*** OD 450 nm | BrdU incorporation (HUVECs [4]; VEGF + 0.5 μM, 24 hrs): 0.8*** OD 450 nm | BrdU incorporation (HUVECs [4]; VEGF + 1 μM, 24 hrs): 0.7*** OD 450 nm | Wound closure (HUVECs [5]; VEGF + 0.1 μM, 24 hrs): 200 µm | Wound closure (HUVECs [5]; VEGF + 0.5 μM, 24 hrs): 180 µm | Wound closure (HUVECs [5]; VEGF + 1 μM, 24 hrs): 155 µm | suppression of VEGF-induced migration of HUVECs, in words (HUVECs [5]): higher efficiency than sunitinib
